The source of these data is ChEMBL document CHEMBL1151859, “Structure-activity relationship studies of a novel series of anthrax lethal factor inhibitors” (Bioorg Med Chem, 2009).

The structures appear in SMILES notation.

In the assay the target is T1, Lethal factor (Bacillus anthracis, UniProt P15917).
T1 sequence (P15917 whole entry): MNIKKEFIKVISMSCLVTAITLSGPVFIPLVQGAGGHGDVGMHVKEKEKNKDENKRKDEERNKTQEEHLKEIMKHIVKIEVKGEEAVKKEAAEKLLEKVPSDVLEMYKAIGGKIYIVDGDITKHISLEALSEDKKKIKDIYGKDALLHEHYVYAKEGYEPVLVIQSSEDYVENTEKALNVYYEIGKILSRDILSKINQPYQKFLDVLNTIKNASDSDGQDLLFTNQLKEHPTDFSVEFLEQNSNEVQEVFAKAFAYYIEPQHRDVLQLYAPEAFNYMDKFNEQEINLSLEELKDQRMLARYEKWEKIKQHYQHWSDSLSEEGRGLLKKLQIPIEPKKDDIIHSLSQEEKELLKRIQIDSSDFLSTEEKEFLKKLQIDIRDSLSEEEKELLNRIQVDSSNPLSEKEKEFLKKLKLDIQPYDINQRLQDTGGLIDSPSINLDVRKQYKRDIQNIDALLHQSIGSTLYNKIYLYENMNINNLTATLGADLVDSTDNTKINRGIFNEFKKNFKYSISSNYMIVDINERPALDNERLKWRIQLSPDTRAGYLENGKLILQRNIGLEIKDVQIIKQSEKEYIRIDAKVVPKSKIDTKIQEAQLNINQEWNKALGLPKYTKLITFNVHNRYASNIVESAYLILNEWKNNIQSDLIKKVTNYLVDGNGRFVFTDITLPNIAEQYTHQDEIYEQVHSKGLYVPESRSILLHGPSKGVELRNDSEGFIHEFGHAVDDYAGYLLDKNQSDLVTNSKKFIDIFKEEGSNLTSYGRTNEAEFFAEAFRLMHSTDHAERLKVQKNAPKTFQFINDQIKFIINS
The experiment in a line: Inhibition of Bacillus anthracis lethal factor assessed as cleavage of MAPKK by fluorescence peptide cleavage assay.
Regarding `COc1ccc(S(=O)(=O)Nc2sccc2-c2nc3ccccc3s2)cc1OC`, the IC50 (usually the concentration that inhibits the measured activity by half) was 19 µM.
Under `COc1ccc(-c2ccc(S(=O)(=O)Nc3ccccc3-c3nc4ccccc4s3)cc2)cc1` stands more than 100 µM; under `O=S(=O)(Nc1sccc1-c1nc2ccccc2s1)c1ccc(S(=O)(=O)N2CCOCC2)cc1`, 17 µM; under `Cc1csc(N(S(=O)(=O)c2ccc(OC(F)(F)F)cc2)S(=O)(=O)c2ccc(OC(F)(F)F)cc2)c1-c1nc2ccccc2s1`, more than 100 µM.
Under `Cc1c(Cl)cccc1S(=O)(=O)Nc1sccc1-c1nc2ccccc2s1` stands more than 50 µM; under `O=S(=O)(Nc1sccc1-c1nc2ccccc2s1)c1ccc(-c2ccc(C(F)(F)F)cc2)cc1`, 8 µM; under `O=S(=O)(Nc1sccc1-c1nc2ccccc2s1)c1cccc(Cl)c1F`, 30 µM.
With `Cc1csc(NS(=O)(=O)c2ccccc2)c1-c1nc2ccccc2s1`, the IC50 is more than 100 µM.
Under `O=S(=O)(Nc1sccc1-c1nc2ccccc2s1)c1ccc(Oc2ccccc2Cl)cc1` stands 9 µM; under `O=S(=O)(Nc1sccc1-c1nc2ccccc2s1)c1ccc2c(c1)OCCO2`, 27 µM; under `Cc1csc(NS(=O)(=O)c2ccc3ccccc3c2)c1-c1nc2ccccc2s1`, 12 µM.
Under `CC(=O)Nc1ccc(S(=O)(=O)Nc2sccc2-c2nc3ccccc3s2)cc1` stands 24 µM.
Under `COc1ccc(-c2ccc(S(=O)(=O)Nc3scc(C)c3-c3nc4ccccc4s3)cc2)cc1` stands 21 µM; under `O=S(=O)(Nc1sccc1-c1nc2ccccc2s1)c1ccc(Cl)cc1`, 15 µM.
As for `Cc1csc(NS(=O)(=O)c2cccc(-c3ccccc3)c2)c1-c1nc2ccccc2s1`, the IC50 is 19 µM.
Under `Cc1csc(NS(=O)(=O)c2cccc(Cl)c2F)c1-c1nc2ccccc2s1` stands 100 µM; under `O=S(=O)(Nc1ccccc1-c1nc2ccccc2s1)c1ccc(-c2ccc(Cl)cc2)cc1`, 100 µM.
Under `O=S(=O)(Nc1sccc1-c1nc2ccccc2s1)c1ccc2cc(Cl)ccc2c1` stands 11 µM.
Under `COc1ccc(-c2ccc(S(=O)(=O)Nc3nc4ccccc4s3)cc2)cc1` stands more than 50 µM.
Regarding `Cc1cc(S(=O)(=O)Nc2scc(C)c2-c2nc3ccccc3s2)ccc1F`, the IC50 amounted to 17 µM.
Under `O=S(=O)(Nc1sccc1-c1nc2ccccc2s1)c1ccc(-c2cncs2)cc1` stands 12 µM.
Under `Cc1csc(NS(=O)(=O)c2cccc(OC(F)(F)F)c2)c1-c1nc2ccccc2s1` stands 11 µM; under `Cc1nnc(-c2cccc(S(=O)(=O)Nc3sccc3-c3nc4ccccc4s3)c2)o1`, 25 µM.
As to `Cc1ccc(S(=O)(=O)Nc2scc(C)c2-c2nc3ccccc3s2)cc1`, the IC50 is more than 100 µM.
Consider `O=C(NCc1ccc(S(=O)(=O)Nc2sccc2-c2nc3ccccc3s2)s1)c1ccc(Cl)cc1`, for which the IC50 was 14 µM.
In the case of `Cc1ccc(S(=O)(=O)Nc2scc(C)c2-c2nc3ccccc3s2)cc1Cl`, the half-maximal inhibitory concentration (IC50) came to 8.9 µM.
Under `Cc1ccc(S(=O)(=O)Nc2sccc2-c2nc3ccccc3s2)cc1F` stands 11 µM; under `O=S(=O)(Nc1sccc1-c1nc2ccccc2s1)c1cccc(-c2ccc(Cl)cc2)c1`, 18 µM.
As for `O=S(=O)(Nc1sccc1-c1nc2ccccc2s1)c1ccc2c(c1)CCO2`, the 50% inhibitory concentration (IC50) is 22 µM.
Under `COc1ccc(-c2cccc(S(=O)(=O)Nc3sccc3-c3nc4ccccc4s3)c2)cc1` stands 14 µM; under `O=S(=O)(Nc1sccc1-c1nc2ccccc2s1)c1ccc(-n2cccn2)cc1`, 8 µM; under `Cc1csc(N)c1-c1nc2ccccc2s1`, more than 100 µM.
On to `CN1CCOc2cc(S(=O)(=O)Nc3sccc3-c3nc4ccccc4s3)ccc21`, for which the IC50 turned out to be 23 µM.
As for `Cc1csc(NS(=O)(=O)c2cccc(Cl)c2C)c1-c1nc2ccccc2s1`, the IC50 is 100 µM.
Under `Nc1sccc1-c1nc2ccccc2s1` stands more than 100 µM; under `O=S(=O)(Nc1sccc1-c1nc2ccccc2s1)c1ccccc1C(F)(F)F`, 9.3 µM.
Under `Cc1csc(NS(=O)(=O)c2ccc(Cl)c(Cl)c2)c1-c1nc2ccccc2s1` stands more than 100 µM.
